Measured values published in US12297294B2, “Cortistatin analogues for the treatment of inflammatory and/or immune diseases” (BCN PEPTIDES, S.A., priority 2013, dated 2025).
Where a SMILES comes first, the peptide text is derived from it. Bridges are numbered along the chain shown (N, C = ends).

Assays:
[1] = Serum stability in 90% human serum at 37° C., RP-HPLC; format: in vitro ADME
Protocol: The new compounds were incubated with 90% human serum at 37° C. Aliquots were extracted at different incubation times. Methanol was added to precipitate the proteins from the serum, it was centrifuged and the supernatant was subject to a chromatographic analysis using RP-HPLC (Gradient: 20-80% B in 30 min, B=0.07% TFA in acetonitrile). The disappearance of the initial product was analyzed using the area corresponding to the initial product and half-life time was calculated.

[2] = test system: acute colitis induced by Dextran sulfate sodium (DSS); experiment: Experimental model of ulcerative colitis (DSS-induced acute colitis); format: in vivo, C57Bl/6 male mice
Protocol: 7-8 week old C57Bl/6 male mice were used. They were given voluntary drinking water with 5% of Dextran sulfate sodium (DSS) from day 0 to day 7 of the study in order to induce acute colitis. Animals in the control group were supplied with normal water. […] CST was used as a reference product. The severity of the colitis was assessed daily using a scale of values from 0 to 4 indicating the clinical disease activity index considering stool consistency, the presence of bloody stools and weight loss. Mice were sacrificed on day 8 of the study and after the necropsy the extent of macroscopic damage was established in the colon using a scale from 0 to 8. […] The average weight of the sick mice's colons was 763 mg, the average weight of the colons of the sick mice treated with CST was 621 mg and that of the colons of the sick mice treated with the new cortistatin analogues was between 614-621 mg, indicating a reduction of the inflammation of the colon.

half-life [1]: 2 min
SMILES: C[C@@H](O)[C@@H]1NC(=O)[C@H](CCCCN)NC(=O)[C@H](Cc2c[nH]c3ccccc23)NC(=O)[C@H](Cc2ccccc2)NC(=O)[C@H](Cc2ccccc2)NC(=O)[C@H](CC(N)=O)NC(=O)[C@H](CCCCN)NC(=O)[C@@H](NC(=O)[C@@H]2CCCN2)CSSC[C@@H](C(=O)N[C@@H](CCCCN)C(=O)O)NC(=O)[C@H](CO)NC(=O)[C@H](CO)NC(=O)[C@H](Cc2ccccc2)NC1=O [cortistatin] (H-PCKNFFWKTFSSCK-OH; disulfide 2-13)
clinical disease activity index (0-4) ([2]; 5% DSS, 0.4 mg/Kg s.c. days 1, 2 and 3, diseased group 3.7): 1-1.5
average weight of colon ([2]; necropsy day 8, sick mice 763 mg): 621 mg
macroscopic grade of colitis (0-8) ([2]; necropsy day 8, sick mice 6.6): 0.87
